In brackets after ≈: the same amount, converted by molar mass. Read-outs that look alike come from different tables or passages of the source.

We go through three compounds from patent publication US20030176494A1, “Novel coumarin and chromene compounds and methods of preparation and use thereof for treating or preventing viral infections” (priority 2001, published 2003).

Data set [1] has as its system VZV. In words: VZV plaque reduction assay in human foreskin fibroblast cells. It counts as cell-based, Varicella Zoster Virus (Ellen strain). To be noted: Human alphaherpesvirus 3, Fibroblast; read-out: Antiviral Activities (EC50) VZV. The procedure: [table] Two days prior to use, HFF cells are plated into six-well plates and incubated at 37° C. with 5% CO2 and 90% humidity. On the date of assay, the drug is made up at twice the desired concentration in 2×MEM and then serially diluted 1:5 in 2×MEM using six concentrations of drug. […] The media is then aspirated from the wells and 0.2 mL of virus is added to each well in duplicate with 0.2 mL of media being added to drug toxicity wells. The plates are then incubated for one hour with shaking every fifteen minutes. […] The drug agarose mixture is applied to each well in 2 mL volume and the plates then incubated for three days, after which the cells were stained with a 1.5% solution of neutral red. At the end of 4-6 hr incubation period, the stain is aspirated, and plaques counted using a stereomicroscope at 10× magnification. The procedure is essentially the same as for the HSV plaque assay described above with two exceptions: 1. After addition of the drug, the plates are incubated for ten days. 2.

Data set [2] deals with HBV. In words: HBV replication in cultures of 2.2.15 cells (HBV DNA blot hybridization). Type of data set: cell-based. To be noted: Hepatitis B virus; read-out: Antiviral Activities (EC50) HBV. On the procedure: Test compounds are then added daily for a continuous 9 day period. Culture medium (changed daily during the treatment period) is collected and stored for analysis of extracellular (virion) HBV DNA after 0, 3, 6, and 9 days of treatment. Treated cells are lysed 24 hours following day 9 of treatment for the analysis of intracellular HBV genomic forms. HBV DVA is then analyzed in a quantitative and qualitative manner for overall levels of HBV DNA (both extracellular and intracellular DNA) and the relative rate of HBV replication (intracellular DNA).
Both intracellular and extracellular HBV DNA are analyzed in order to (i) allow for verification of compound efficacy and (ii) provide possible data on the target site in the HBV replication pathway for the compound from examination of the pattern of viral replicative forms. The culture medium is changed daily during the treatment period to (i) prevent the buildup of potentially toxic metabolites derived from test compounds and (ii) provide an analysis of HBV virion production during discrete 24-hour intervals which enables a quantitative comparison of any effect on virion production.
The analysis of HBV DNA is performed using blot hybridization techniques (Southern and slot blot) and [^32P]-labeled HBV-specific probes. HBV DNA levels are measured by comparison to known amounts of HBV DNA standards applied to every nitrocellulose membrane (gel or slot blot). An AMBIS beta scanner, which measures the radioactive decay of the hybridized probes directly from the nitrocellulose membranes, is used for the quantitative analysis. Standard curves, generated by multiple analyses, are used to correlate CPM measurements made by the beta scanner with relative levels of target HBV DNA. The levels of HBV virion DNA released into the culture medium are analyzed by a slot blot hybridization procedure. HBV DNA levels are then compared to those at Day 0 to determine the effect of drug treatment.
The levels of RI and episomal monomers are used as an indicator of the relative level of HBV replication. Integrated HBV DNA is used to normalize the relative amounts of DNA in each lane because the levels of this class of HBV DNA would be expected to remain constant on a per cell basis. […] Inhibition of HBV DNA replication is indicated by the loss of RI without changes in the level of integrated HBV DNA.

Data set [3] concerns EBV. In words: EBV assay: superinfection of Raji or Daudi cells with P3HR-1, immunofluorescence for EA and VCA. It counts as cell-based, Epstein-Barr Virus (P3HR-1). To be noted: human gammaherpesvirus 4; read-out: Antiviral Activities (EC50) EBV. The source says:
There are two prototypes of infectious EBV. One is exemplified by the virus derived from supernatant fluids of the P3HR-1cell line. This cell line produces nontransforming virus that causes the production of early antigen (EA) after primary infection or superinfection of B cell lines. The other prototype is exemplified by the B-95-8 virus. This virus immortalized cord blood lymphocytes and induced tumors in marmosets. […] The virus used in our assays is P3HR-1.
Ramos is an exceptional B cell line derived from Burkitt's lymphoma tumor but containing no detectable EBV genome copies and is EBNA negative. Ramos/AW was obtained by in vitro infection of Ramos with the P3HR-1 virus and contains one resident EBV genome copy/cell. Raji is a Burkitt's lymphoma cell line containing 60 EBV genomes/cell, and will be the primary cell used for screening antiviral activity against EBV EA expression. Daudi is a low level producer that contains 152 EBV genome copies/cell. It spontaneously expresses EBV EA in 0.25%-0.5% of the cells. It will be used in follow-up studies to confirm activity. These cell lines respond to superinfection by EBV by expressing EA(D), EA(R), and VCA. All cell lines are maintained in RPMI-1640 medium supplemented by 10% FCS, L-glutamine and 100 μg/mL gentamicin. The cultures are fed twice weekly and the cell concentration adjusted to 3×10^5/mL. The cells are kept at 37° C. in a humidified atmosphere with 5% CO2.
Cells are infected with the P3HR-1 strain of EBV and the drugs to be tested are added after adsorption (45 minutes at 37° C.) and washing of the cell cultures. The cultures are incubated for two days in complete medium to allow viral gene expression. Following the 48 hr incubation period, the number of cells of each sample are counted and smears made. Monoclonal antibodies to the different EA components and VCA are then added to the cells incubated and washed. This is followed by a fluorescein conjugated rabbit anti-mouse Ig antibody; and the number of fluorescence positive cells in the smears are counted. The total number of cells in the cultures positive for EA or VCA are then calculated and compared.

Data set [4] has as its system HIV. In words: Anti-HIV evaluation by MTT-tetrazolium method (inhibition of CPE in MT-2 / CEM-SS cells). Type of data set: cell-based. The note with it: Human immunodeficiency virus 1, CEM-SS; read-out: Antiviral Activities (EC50) HIV. On the procedure: This example illustrates the anti-HIV activity of various coumarin and chromene compounds which were evaluated using the published MTT-tetrazolium methods^8. Retroviral agents AZT and DDC were used as controls for comparison purposes.
The cells used for screening were the MT-2 and the human T4-lymphoblastoid cell line, CEM-SS, and were grown in RPMI 1640 medium supplemented with 10% fetal (v/v) heat-inactivated fetal calf serum and also containing 100 units/mL penicillin, 100 μg/mL streptomycin, 25 mM HEPES and 20 μg/mL gentamicin. The medium used for dilution of drugs and maintenance of cultures during the assay was the same as above. The HTLV-IIIB and HTLV-RF were propagated in CEM-SS. The appropriate amounts of the pure compounds for anti-HIV evaluations were dissolved in DMSO, then diluted in medium to the desired initial concentration. The concentrations (M medium) employed were […]; 0.001 μM; 0.0032 μM; 0.01 μM; 0.032 μM; 0.1 μM; 0.32 μM; 1 μM; 3.2 μM; 10 μM; 32 μM; and 100 μM. Each dilution was added to plates in the amount of 100 μL/well. Drugs were tested in triplicate wells per dilution with infected cells while in duplicate wells per dilution with uninfected cells for evaluation of cytotoxicity. On day 6 (CEM-SS cells) and day 7 (MT-2 cells) post-infection, the viable cells were measured with a tetrazolium salt, MTT (5 mg/mL), added to the test plates. A solution of 20% SDS in 0.001 N HCl is used to dissolve the MTT formazan produced. The optical density value was a function of the amount of formazan produced which was proportional to the number of viable cells. The percent inhibition of CPE per drug concentration was measured as a test over control and expressed in percent (T/C %).

In data set [5] the test system is Rhinovirus. In words: Rhinovirus antiviral assay (CPE inhibition, neutral red uptake, virus yield). Type of data set: cell-based. To be noted: Enterovirus.
Data set [6] concerns Measles Virus. In words: Measles virus antiviral assay (CPE inhibition, neutral red uptake, virus yield). It counts as cell-based, Measles virus strain CC. The note with it: Measles morbillivirus.
For data set [7], the system named is Respiratory Syncytial Virus. In words: Respiratory syncytial virus antiviral assay (CPE inhibition, neutral red uptake). To be noted: human respiratory syncytial virus. Type of data set: cell-based, Respiratory syncytial virus strain Utah 89.
In data set [8] the test system is pyridinone-resistant A17 virus. The note with it: cited from earlier work.
The test system of data set [9] is human T-lymphoblastic cells (CEM-SS). The note with it: cited from earlier work.
Data set [10] deals with AZT-resistant G-9106 strain of HIV. To be noted: cited from earlier work.
For data set [11], the system named is HIV-1. To be noted: cited from earlier work.

As a reminder, the melting point is the temperature, or range, at which the solid turns liquid. Turning to `CCCc1cc(=O)oc2cc(OC(=O)C(C)(C)C)cc(O)c12` [Compound 7b, 5-Hydroxy-7-pivaloyloxy-4-propylcoumarin], the melting point was 158 to 160 °C.

The EC50 is the concentration at which the effect is half-maximal. Consider `CCCc1cc(=O)oc2c3c(c4c(c12)OC(C)(C)[C@H](O)[C@H]4OC(=O)c1cccc(Cl)c1)O[C@H](C)[C@@H](C)C3=O`, for which the EC50 in data set [1] is 3.5 µg/mL (≈ 6.47 µM); in data set [2], 2.6 µg/mL (≈ 4.81 µM); in data set [3], 29.2 µg/mL (≈ 54 µM); in data set [4], greater than 3 µg/mL; in [5] (CPE inhibition, read-out: Antiviral Activities (EC50) Rhinovirus (CPE)) it was 0.1 µg/mL (≈ 0.185 µM); in data set [5] (neutral red (NR) dye uptake, read-out: Antiviral Activities (EC50) Rhinovirus (NR)), 0.1 µg/mL (≈ 0.185 µM). Further, the EC50 came to 4 µg/mL (≈ 7.39 µM) in data set [5] (read-out: Antiviral Activities (EC50) Rhinovirus (virus yield)); 3 µg/mL (≈ 5.55 µM) in data set [6] (CPE inhibition, read-out: Antiviral Activities (EC50) Measles (CPE)); 0.4 µg/mL (≈ 0.739 µM) in data set [6] (neutral red (NR) dye uptake, read-out: Antiviral Activities (EC50) Measles (NR)); 3 µg/mL (≈ 5.55 µM) in data set [7] (CPE inhibition, read-out: Antiviral Activities (EC50) Respiratory Syncitial (CPE)); 4 µg/mL (≈ 7.39 µM) in [7] (neutral red (NR) dye uptake, read-out: Antiviral Activities (EC50) Respiratory Syncitial (NR)).

One may read the IC50 as the concentration at which inhibition is half-maximal. On to `CCCc1cc(=O)oc2c3c(c4c(c12)OC(C)(C)C=C4)O[C@H](C)[C@@H](C)[C@@H]3O` [(+)-calanolide A, (+)-Calanolide A], for which the “activity against pyridinone-resistant A17 virus” value in data set [8] was “active”. Besides, in data set [9], the 50% inhibitory concentration (IC50) was 20 µM. In data set [10], the “activity against AZT-resistant G-9106 strain of HIV” value is recorded as “active”. Further, the “protection against the cytopathic effects of HIV-1” value in [11] (down to a concentration of 0.1 μM) is recorded as 100%. The EC50 in [11] (human T-lymphoblastic cells (CEM-SS), read-out: EC50, HIV-1 replication in CEM-SS) is 0.1 µM.
